# Results from patent US12441757B2, “Platform for screening NAD+ binding proteins in a cellular context” (OREGON HEALTH & SCIENCE UNIVERSITY, priority 2020, dated 2025).
# Entries after “also recorded” stand apart in the source; their conditions may differ.
# Tests used:
# PARP-10 = target: T1, PARP-10 (Homo sapiens, UniProt Q53GL7); experiment: Competition labeling of PARP-10 by 2-ad-BAD; assay type: binding; conditions: for block of 2-ad-BAD labeling of PARP-10 by nucleotides: 150 μM nucleotide, 0.3 μM 2-ad-BAD; for dose-dependent block of 2-ad-BAD labeling of PARP-10: competitor dose series
# T1 construct: Full length His6-PARP-1 and His6-SUMO-PARP-10 proteins we expressed and purified; His6 (N); SUMO (N); made in house
# T1 sequence (Q53GL7 1-1025): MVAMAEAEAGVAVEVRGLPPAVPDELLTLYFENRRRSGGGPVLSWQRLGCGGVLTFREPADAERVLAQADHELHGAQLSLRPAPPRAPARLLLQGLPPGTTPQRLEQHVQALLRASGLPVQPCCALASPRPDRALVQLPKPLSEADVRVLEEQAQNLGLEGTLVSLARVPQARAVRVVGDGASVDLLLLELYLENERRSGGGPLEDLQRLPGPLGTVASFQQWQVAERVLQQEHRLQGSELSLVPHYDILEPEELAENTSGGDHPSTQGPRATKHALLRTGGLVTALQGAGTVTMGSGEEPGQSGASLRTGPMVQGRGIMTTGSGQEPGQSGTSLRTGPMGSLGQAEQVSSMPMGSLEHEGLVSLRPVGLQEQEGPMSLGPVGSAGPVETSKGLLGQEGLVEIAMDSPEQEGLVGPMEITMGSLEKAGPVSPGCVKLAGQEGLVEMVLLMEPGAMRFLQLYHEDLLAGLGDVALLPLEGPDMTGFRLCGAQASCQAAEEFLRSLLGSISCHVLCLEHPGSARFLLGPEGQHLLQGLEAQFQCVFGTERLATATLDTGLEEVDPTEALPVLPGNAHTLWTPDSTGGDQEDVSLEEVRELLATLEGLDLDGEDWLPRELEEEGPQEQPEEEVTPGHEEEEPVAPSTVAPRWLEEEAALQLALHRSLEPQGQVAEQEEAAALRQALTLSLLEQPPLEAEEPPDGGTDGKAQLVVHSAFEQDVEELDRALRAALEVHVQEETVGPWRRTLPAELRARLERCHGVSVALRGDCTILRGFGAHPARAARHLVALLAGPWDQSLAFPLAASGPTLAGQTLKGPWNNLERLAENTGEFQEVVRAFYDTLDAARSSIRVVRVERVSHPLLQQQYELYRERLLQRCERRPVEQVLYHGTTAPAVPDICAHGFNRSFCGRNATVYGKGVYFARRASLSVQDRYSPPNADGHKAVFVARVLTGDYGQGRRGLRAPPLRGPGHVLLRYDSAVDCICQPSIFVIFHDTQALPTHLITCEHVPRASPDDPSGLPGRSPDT
# Description: (§1) FIG. 8. Densitometry analyses of FIG. 3A panels (A,B) comparing the inhibitory effect of nucleotides and (B) panels (C,D) comparing inhibitory effect of PARP inhibitors on PARP-1 and PARP-10 labelling by 2-ad-BAD. TAMRA in-gel fluorescence was normalized to Coomassie staining, except for PARP-1 NAD^+ treated samples where relative to control TAMRA signal is reported due to auto-PARylation induced molecular weight shift and therefore not detectable Coomassie signal at PARP-1 molecular weight of ˜110 kDa. Data are mean±SEM of 3 independent experiments.
# (§2) Treatments. Recombinant PARP-1 (250 nM), PARP-10 (250 nM) or AK1 (500 nM; Novus Biologicals) were diluted in 100 mM NaCl, 50 mM HEPES [pH 7.4], 4 mM MgCl2, 0.2 mM TCEP. PARP-1 reactions also contained 10 μg/mL of activated calf thymus DNA (Sigma-Aldrich D4522), unless otherwise noted. In experiments reported in FIG. 2, the samples were treated with 0.1 μM 2-ad-BAD or ad-olaparib for 10 min. In competition experiments reported in FIG. 3 and Figure S3, samples were first treated with 150 μM of indicated nucleotides for 10 minute and then with 0.3 μM 2-ad-BAD for additional 10 min. All treatments occurred at RT. Samples were then kept in the dark or irradiated for 5 min in the RPR-100 Photochemical Reactor (Rayonet) equipped with 350 nm lamps at 4° C.
# (§3) Click Chemistry. 25 μL of each sample was mixed with 5 μL of fatty acid free BSA and SDS to give a final Click reaction concentration of 1 mg/mL and 1%, respectively. Click reactions were started by adding 15 μL of PBS based 3× click reaction mix (final 1× concentrations shown): 100 μM Tris[(1-benzyl-1H-1,2,3triazol-4-yl)methyl]amine (TBTA, Click Chemistry Tools), 1 mM CuSO4, 40 μM tetramethylrhodamine (TAMRA)-azide (Click Chemistry Tools), 1 mM Tris(2-carboxyethyl)phosphine hydrochloride (TCEP, Thermo Fisher) and 5% tert-Butyl alcohol to each sample, and let to proceed for 1 h at RT while gently shaking. Reactions were stopped by adding 4× Laemmli sample buffer and boiling at 95° C. for 5 min.
# (§4) In gel fluorescence and staining. Samples were loaded to 10 or 12% SDS-polyacrylamide gels and run until the dye front left the gel. In-gel fluorescence was detected with ChemiDoc XRS+ (Biorad) using Rhodamine filter and then the gels were stained with Coomassie blue or Silver using standard protocols.
# PARP-1 [1] = target: T2, PARP-1 (Homo sapiens, UniProt P09874); experiment: Competition labeling of PARP-1 by 2-ad-BAD; assay type: binding; conditions: for block of 2-ad-BAD labeling of PARP-1 by nucleotides: 150 μM nucleotide, 0.3 μM 2-ad-BAD; for dose-dependent block of 2-ad-BAD labeling of PARP-1: competitor dose series
# T2 construct: Full length His6-PARP-1 and His6-SUMO-PARP-10 proteins we expressed and purified; His6 (N); made in house
# Description: as §1, §2, §3, §4
# Adenylate kinase 1 (AK1) = target: T3, Adenylate kinase 1 (AK1) (Homo sapiens, UniProt P00568); experiment: Labeling of recombinant AK1 by 2-ad-BAD and nucleotide competition; assay type: binding; conditions: 150 μM competitor, 0.3 μM 2-ad-BAD
# T3 construct: purchased Novus Biologicals NBP1-50855
# T3 sequence (P00568 1-194): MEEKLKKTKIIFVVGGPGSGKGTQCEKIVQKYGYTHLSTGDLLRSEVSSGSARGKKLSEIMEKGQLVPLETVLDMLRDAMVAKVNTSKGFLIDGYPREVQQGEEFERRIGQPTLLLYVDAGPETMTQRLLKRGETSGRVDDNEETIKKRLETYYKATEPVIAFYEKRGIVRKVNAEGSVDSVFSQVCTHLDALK
# Description: (§5) FIG. 10. Validation of Adenylate kinase 1 (AK1) as a putative NAD^+/NADH binding protein. […] Recombinant AK1 (500 nM) in 100 mM NaCl, 50 mM HEPES [pH 7.4], 4 mM MgCl2, 0.2 mM TCEP was incubated with 150 μM of indicated competitor molecule for 10 min, followed by 10 min treatment with 0.3 μM 2-ad-BAD. Samples were then subjected to UV light for 5 min, conjugated to TAMRA using Click chemistry, separated by SDS-PAGE and in-gel fluorescence was recorded. […] (FIG. 10B) A differential scanning fluorimetry assay is supportive of NADH as novel AK1 ligand. Recombinant AK1 (0.1 mg/mL) in 100 mM NaCl, 50 mM HEPES, pH 7.4, 4 mM MgCl2, 7.5× SYPRO Orange was tested for thermal stability in the absence or presence of indicated nucleotides at 1 mM. Ordinate reports on the difference of melt peak temperature prompted by indicated treatments. Data are mean±SEM of 3 independent experiments.
# as §2, §3, §4
# squid AK = conditions: cited from earlier work
# AK1 [2] = target: T4, AK1 (Homo sapiens, UniProt P00568); experiment: Differential scanning fluorimetry (DSF) of AK1; assay type: binding; conditions: nucleotide 1 mM, AK1 0.1 mg/mL
# T4 construct: purchased Novus Biologicals NBP1-50855
# T4 sequence (P00568 1-194): T3 sequence (P00568 1-194)
# Description: as §5
# Differential scanning fluorimetry was used to detect the AK1-ligand interaction. […] AK1 thermal stability upon treatment with ddH2O, ATP, ADP, NAD^+or NADH, 1 mM each, was measured on Biorad RT-PCR thermocycler using Cal Orange 560 filter. […] The melting temperature (Tm) for each sample was determined by calculating first derivative of the fluorescence (d(RFU)/dT) and shift in thermal stability (ΔTm) was calculated by subtracting vehicle—treated sample Tm from ligand-treated sample Tm.
# AK1 [3] = conditions: cited from earlier work
# PARP-1 [4] = target: T2, PARP-1; experiment: In vitro photocrosslinking and click chemistry labeling of PARP-1 (in-gel fluorescence); assay type: binding; conditions: 0.1 μM probe, UV 350 nm 5 min, presence or absence of damaged DNA
# Description: as §2
# Click Chemistry. 25 μL of each sample was mixed with 5 μL of fatty acid free BSA and SDS to give a final Click reaction concentration of 1 mg/mL and 1%, respectively. […]
# In gel fluorescence and staining. […] In-gel fluorescence was detected with ChemiDoc XRS+ (Biorad) using Rhodamine filter and then the gels were stained with Coomassie blue or Silver using standard protocols.
# T2 sequence (P09874 whole entry): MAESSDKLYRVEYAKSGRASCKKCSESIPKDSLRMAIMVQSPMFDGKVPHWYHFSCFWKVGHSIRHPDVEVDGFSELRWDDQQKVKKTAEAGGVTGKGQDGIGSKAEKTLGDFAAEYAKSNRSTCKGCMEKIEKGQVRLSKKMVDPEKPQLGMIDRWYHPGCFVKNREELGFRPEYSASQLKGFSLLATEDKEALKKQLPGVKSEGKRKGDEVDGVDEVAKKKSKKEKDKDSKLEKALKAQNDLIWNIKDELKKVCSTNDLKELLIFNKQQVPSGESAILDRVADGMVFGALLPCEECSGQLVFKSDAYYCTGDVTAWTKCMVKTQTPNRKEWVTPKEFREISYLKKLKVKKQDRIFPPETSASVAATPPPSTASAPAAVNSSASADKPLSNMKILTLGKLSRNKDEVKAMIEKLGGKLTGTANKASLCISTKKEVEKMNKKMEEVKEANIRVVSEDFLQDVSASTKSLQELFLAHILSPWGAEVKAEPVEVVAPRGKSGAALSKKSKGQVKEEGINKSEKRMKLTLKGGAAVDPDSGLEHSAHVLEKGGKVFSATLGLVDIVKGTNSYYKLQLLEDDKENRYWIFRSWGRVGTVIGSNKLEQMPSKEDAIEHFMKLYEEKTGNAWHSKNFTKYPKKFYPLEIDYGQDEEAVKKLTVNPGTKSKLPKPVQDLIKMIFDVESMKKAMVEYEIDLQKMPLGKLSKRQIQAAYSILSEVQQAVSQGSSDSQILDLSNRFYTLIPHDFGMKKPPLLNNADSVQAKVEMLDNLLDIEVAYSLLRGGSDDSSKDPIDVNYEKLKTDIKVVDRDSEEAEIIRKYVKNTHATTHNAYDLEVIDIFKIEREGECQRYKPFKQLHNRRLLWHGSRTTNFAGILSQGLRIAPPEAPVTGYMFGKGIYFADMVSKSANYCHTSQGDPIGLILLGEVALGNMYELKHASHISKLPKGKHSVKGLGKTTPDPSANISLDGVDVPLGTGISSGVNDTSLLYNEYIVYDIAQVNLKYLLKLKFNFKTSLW
Structure (SMILES),block of 2-ad-BAD labeling of PARP-10 by nucleotides (PARP-10),block of 2-ad-BAD labeling of PARP-1 by nucleotides (PARP-1 [1]),competition of 2-ad-BAD labeling of recombinant AK1 (Adenylate kinase 1 (AK1)),also measured
Nc1ncnc2c1ncn2[C@@H]1O[C@H](COP(=O)(O)OP(=O)(O)O)[C@@H](O)[C@H]1O [ADP],did not block,did not block,,
"Nc1ncnc2c1ncn2[C@@H]1O[C@H](COP(=O)(O)OP(=O)(O)OC[C@H]2OC(O)[C@H](O)[C@@H]2O)[C@@H](O)[C@H]1O (stereo partly shown) [ADPr, ADP-ribose]",did not block,did not block,to a lesser extent,
Nc1ncnc2c1ncn2[C@@H]1O[C@H](COP(=O)(O)O)[C@@H](O)[C@H]1O [AMP],,,effectively competed,
"Nc1ncnc2c1ncn2[C@@H]1O[C@H](COP(=O)(O)OP(=O)(O)OP(=O)(O)O)[C@@H](O)[C@H]1O [ATP, adenosine triphosphate]",did not block,did not block,effectively competed,
CC#Cc1ccc2c(=O)[nH]c(CSc3ccc(C(=O)O)cc3)nc2c1C [ITK6],,,,dose-dependent block of 2-ad-BAD labeling of PARP-10 (PARP-10): blocked the labeling of PARP-10; dose-dependent block of 2-ad-BAD labeling of PARP-1 (PARP-1 [1]): did not block the labeling of PARP-1
NC(=O)C1=CN([C@@H]2O[C@H](COP(=O)(O)OP(=O)(O)OC[C@H]3O[C@@H](n4cnc5c(N)ncnc54)[C@H](O)[C@@H]3O)[C@@H](O)[C@H]2O)C=CC1 [NADH],reduced,reduced,effectively competed,mode of inhibition of squid AK (squid AK): non-competitive inhibitor; shift in AK1 thermal stabilization (ΔTm) compared to vehicle control (AK1 [2]): caused a shift in AK1 thermal stabilization; also recorded: showed a thermal shift similar to ATP and ADP; inhibition of AK1 activity (AK1 [3]): competitively inhibited
"NC(=O)c1ccc[n+]([C@@H]2O[C@H](COP(=O)([O-])OP(=O)(O)OC[C@H]3O[C@@H](n4cnc5c(N)ncnc54)[C@H](O)[C@@H]3O)[C@@H](O)[C@H]2O)c1 [NAD^+, Nicotinamide adenine dinucleotide]",reduced,reduced,to a lesser extent,shift in AK1 thermal stabilization (ΔTm) compared to vehicle control (AK1 [2]): caused a shift in AK1 thermal stabilization; inhibition of AK1 activity (AK1 [3]): competitively inhibited
"NC(=O)c1cc(F)cc2c1C(=O)N(C1CCN(C3CCC(F)(F)CC3)CC1)C2 [NMS-P118, 2-[1-(4,4-Difluorocyclohexyl)Piperidin-4-Yl]-6-Fluoro-3-Oxo-2,3-Dihydro-1H-Isoindole-4-Carboxamide]",,,,dose-dependent block of 2-ad-BAD labeling of PARP-10 (PARP-10): did not block the labeling of PARP-10; dose-dependent block of 2-ad-BAD labeling of PARP-1 (PARP-1 [1]): blocked the labeling of PARP-1
"C#CCCC1(CCOC(=O)N2CCN(C(=O)c3cc(Cc4n[nH]c(=O)c5ccccc45)ccc3F)CC2)N=N1 [ad-olaparib, 2-(3-(but-3-yn-1-yl)-3H-diazirin-3-yl)ethyl 4-(2-fluoro-5-((4-oxo-3,4-dihydrophthalazin-1-yl)methyl)benzoyl) piperazine-1-carboxylate]",,,,"UV-dependent labeling of PARP-1, dependence on damaged DNA (PARP-1 [4]): labels PARP-1 independent of PARP-1 binding to damaged DNA"
